Measured values published in paper PMC5566973 (Frontiers in Pharmacology, 2017).

Columns and labels:
Assay in all cases: in vitro
Caco-2 cell monolayers = tested on: Caco-2 cell monolayers
Experimental: (§1) Caco-2, MDCK and MDCK-MRP2 cells were donated by Prof. Yan Xie and Yueming Ma from Shanghai University of Traditional Chinese Medicine. The cells were grown in culture dishes (Corning® Costar, Cambridge, MA, USA) using DMEM supplemented with 10% FBS, 1% NEAA and 1% penicillin-streptomycin solution. The cells were cultured in 5% CO2 and […] with 90% relative humidity at 37°C. The medium was replaced every other day during incubation. The cells were passaged every 3–4 days between 70 and 80% confluence at a 1:5 split ratio using 0.25% trypsin-EDTA. For the transport experiments, the cells from passages between 30 and 45 were seeded at 1 × 10^5 cells/cm^2 onto permeable polycarbonate inserts (0.45 μm pore size, seeding surface of 0.6 cm^2, Millipore, MA, USA) in 24-well plastic plates. The media in the culture plates were changed every other day for the first week after seeding and were replaced daily afterward. […] The cells were used for the transport experiments 21–28 (Caco-2) or 5–7 (MDCK and MDCK-MRP2) days after seeding, and only monolayers with a TEER-value above 420 Ω cm^2 were used during the studies.
(§2) The apical (AP) and basolateral (BL) sides are typical of polarized Caco-2, MDCK and MDCK-MRP2 epithelial cells. Before the experiments, the polarized cell monolayers were washed twice with warm HBSS solution and subsequently preincubated (37°C, 30 min). Afterward, HBSS solution on both sides of the cell monolayers was removed using a mini desktop vacuum pump. […] The final DMSO concentration in the HBSS or drug mixture was below 0.5%. The monolayers were incubated at 37°C, and 100 μL samples were taken at 30, 60, 90, and 120 min from the acceptor compartment and immediately replaced with the same volume of prewarmed fresh blank HBSS. TEER measurements for assessing the membrane integrity took place before and after the experiments.
(§3) The apparent permeability coefficients (Papp) and ER were calculated as Equations (2) and (3): […]
(§4) where dQ/dt is the steady-state flux, A is the membrane surface area, and C0 is the initial drug concentration in the donor compartment. PappBA is the Papp-value measured in BL to AP direction and PappAB is the Papp-value measured in AP to BL direction. It indicated the involvement of an active transport process when the ER-value is above 1.5 (Hubatsch et al., [2007]).

Na+/K+-ATPase = details: human, Caco-2, 2 μM, + Sodium vanadate 0.05 mM (Na^+)
Experimental: as §1, §2, §3, §4

MDR1 = details: human, Caco-2, ER, Caco-2, 2 μM
Experimental: as §1, §2, §3, §4

[1] = Caco-2, 2 μM, + Apigenin 0.025 mM (BCRP)
[2] = Caco-2, 2 μM, + Cimetidine 0.05 mM (OATs)
[3] = Caco-2, 2 μM, + ES 0.05 mM (OATPs)
[4] = Caco-2, 2 μM, + Gly-Sar 10 mM (PEPT1)
[5] = Caco-2, 2 μM, + Ko143 0.01 mM (BCRP)
[6] = Caco-2, 2 μM, + MK571 0.05 mM (MRP2)
[7] = Caco-2, 2 μM, + NaN3 10 mM (ATP)
[8] = Caco-2, 2 μM, + Phloretin 0.3 mM (MCTs)
[9] = Caco-2, 2 μM, + Phloridzin 0.5 mM (SGLT1)
[10] = Caco-2, 2 μM, + Probenecid 0.2 mM (MRP2)
[11] = Caco-2, 2 μM, + Quinidine 0.1 mM (MDR1)
[12] = Caco-2, 2 μM, + TEA 5 mM (OCTs/OCTNs)
[13] = Caco-2, 2 μM, + Verapamil 0.1 mM (MDR1)
[14] = Caco-2, 2 μM, Control (no inhibitor or substrate)
[15] = Caco-2, 2 μM, Control (pH 7.4, 37°C, without EDTA)

COc1ccc2c3c([nH]c2c1)C(C)=NCC3 [Harmaline]
PappAB (Caco-2 cell monolayers; Caco-2, 2 μM, 4°C): 7.59 ± 0.33^*** 1 × 10^−6 cm/s | PappAB (Caco-2 cell monolayers; Caco-2, 2 μM, 4°C, listed as harmaline): 7.59 ± 0.33 1 × 10^−6 cm/s | Modulatory effect (Caco-2 cell monolayers; [1]): − | PappAB (Caco-2 cell monolayers; [1]): 27.85 ± 2.09 1 × 10^−6 cm/s | PappBA (Caco-2 cell monolayers; [1]): 26.04 ± 1.43 1 × 10^−6 cm/s | Modulatory effect (Caco-2 cell monolayers; [2]): − | PappBA (Caco-2 cell monolayers; [2]): 26.16 ± 1.79 1 × 10^−6 cm/s | Modulatory effect (Caco-2 cell monolayers; [3]): + | PappAB (Caco-2 cell monolayers; [3]): 24.33 ± 0.49 1 × 10^−6 cm/s | PappBA (Caco-2 cell monolayers; [3]): 26.41 ± 0.94 1 × 10^−6 cm/s | Modulatory effect (Caco-2 cell monolayers; [4]): − | PappAB (Caco-2 cell monolayers; [4]): 27.73 ± 0.95 1 × 10^−6 cm/s | PappBA (Caco-2 cell monolayers; [4]): 26.31 ± 1.18 1 × 10^−6 cm/s | Modulatory effect (Caco-2 cell monolayers; [5]): − | PappBA (Caco-2 cell monolayers; [5]): 26.15 ± 0.48 1 × 10^−6 cm/s | Modulatory effect (Caco-2 cell monolayers; [6]): − | PappAB (Caco-2 cell monolayers; [6]): 27.90 ± 1.31 1 × 10^−6 cm/s | PappBA (Caco-2 cell monolayers; [6]): 25.82 ± 0.71 1 × 10^−6 cm/s | Modulatory effect (Caco-2 cell monolayers; [7]): + | PappAB (Caco-2 cell monolayers; [7]): 22.75 ± 2.68^* 1 × 10^−6 cm/s | PappBA (Caco-2 cell monolayers; [7]): 26.18 ± 1.02 1 × 10^−6 cm/s | Modulatory effect (Caco-2 cell monolayers; [8]): − | PappAB (Caco-2 cell monolayers; [8]): 27.77 ± 2.14 1 × 10^−6 cm/s | PappBA (Caco-2 cell monolayers; [8]): 26.25 ± 0.91 1 × 10^−6 cm/s | Modulatory effect (Caco-2 cell monolayers; [9]): − | PappAB (Caco-2 cell monolayers; [9]): 27.57 ± 2.40 1 × 10^−6 cm/s | PappBA (Caco-2 cell monolayers; [9]): 26.07 ± 1.60 1 × 10^−6 cm/s | Modulatory effect (Caco-2 cell monolayers; [10]): − | PappAB (Caco-2 cell monolayers; [10]): 27.22 ± 1.04 1 × 10^−6 cm/s | PappBA (Caco-2 cell monolayers; [10]): 26.10 ± 1.02 1 × 10^−6 cm/s | Modulatory effect (Caco-2 cell monolayers; [11]): − | PappAB (Caco-2 cell monolayers; [11]): 27.54 ± 1.35 1 × 10^−6 cm/s | PappBA (Caco-2 cell monolayers; [11]): 26.44 ± 1.47 1 × 10^−6 cm/s | Modulatory effect (Caco-2 cell monolayers; Caco-2, 2 μM, + Sodium vanadate 0.05 mM (Na^+)): + | Modulatory effect (Caco-2 cell monolayers; [12]): + | PappBA (Caco-2 cell monolayers; [12]): 26.75 ± 1.58 1 × 10^−6 cm/s | Modulatory effect (Caco-2 cell monolayers; [13]): − | PappAB (Caco-2 cell monolayers; [13]): 27.32 ± 1.33 1 × 10^−6 cm/s | PappBA (Caco-2 cell monolayers; [13]): 25.68 ± 1.55 1 × 10^−6 cm/s | PappAB (Caco-2 cell monolayers; [14]): 27.48 ± 0.18 1 × 10^−6 cm/s | PappBA (Caco-2 cell monolayers; [14]): 26.19 ± 4.02 1 × 10^−6 cm/s | PappAB (Caco-2 cell monolayers; [15]): 27.72 ± 1.06 1 × 10^−6 cm/s | PappBA (Caco-2 cell monolayers; [15]): 26.42 ± 0.49 1 × 10^−6 cm/s | PappAB (Caco-2 cell monolayers; Caco-2, 2 μM, with EDTA 5 mM): 35.23 ± 2.68^* 1 × 10^−6 cm/s | PappBA (Caco-2 cell monolayers; Caco-2, 2 μM, with EDTA 5 mM): 39.57 ± 2.10^* 1 × 10^−6 cm/s | PappAB (Caco-2 cell monolayers; Caco-2, initial concentration 2 μM): 27.72 ± 1.06 1 × 10^−6 cm/s | ER-values at the tested concentrations (Caco-2 cell monolayers; Caco-2 and MDCK, 1, 2, and 5 μM): < 1.5 | efflux ratio (Na+/K+-ATPase; Caco-2, ER): 1.27 | Papp B→A (Na+/K+-ATPase; Caco-2, PappBA): 26.9 ± 1.26 ×10⁻⁶ cm/s | efflux ratio (MDR1; + Quinidine 0.1 mM (MDR1)): 0.96 | efflux ratio (MDR1; + Verapamil 0.1 mM (MDR1)): 0.94
